Source: US12384801B2, “Benzothiophene, thienopyridine and thienopyrimidine derivatives for the modulation of sting” (CTXT PTY LTD, priority 2019, dated 2025)

Legend:
human STING (HAQ) [1] = molecular target: T1, human STING (HAQ) (Homo sapiens (Human), UniProt Q86WV6, G230A/H232R/R293Q); test: Differential scanning fluorimetry (DSF), huSTING (HAQ); type: binding; details: compound 100 μM, 2 μM protein, Tm with ligand minus Tm of protein alone (1% DMSO)
Procedure: (§1) Data were analyzed using “Meltdown analysis” protocol described by Rosa (2015).

human STING (WT) [2] = molecular target: T2, human STING (WT) (Homo sapiens (Human), UniProt Q86WV6, H232R); test: Differential scanning fluorimetry (DSF), huSTING (WT); type: binding; details: compound 100 μM, 2 μM protein, Tm with ligand minus Tm of protein alone (1% DMSO)
T2 sequence (Q86WV6 149-345 H232R): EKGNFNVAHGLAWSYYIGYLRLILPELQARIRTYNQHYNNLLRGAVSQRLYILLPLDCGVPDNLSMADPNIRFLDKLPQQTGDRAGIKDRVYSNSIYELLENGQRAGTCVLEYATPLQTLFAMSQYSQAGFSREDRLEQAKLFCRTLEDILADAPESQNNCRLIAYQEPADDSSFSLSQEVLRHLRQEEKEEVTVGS
Procedure: as §1

[3] = molecular target: human HAQ isoform of STING (Homo sapiens (Human), UniProt Q86WV6, G230A/H232R/R293Q/R71H); test: THP-1 STING Lucia ISG reporter cell line assay; type: cell-based; details: 24 h incubation, luminescence, normalized to ML RR-S2 CDA 40 μM; read-out: EC50 THP-I STING Lucia ISG cells
Sequence of human HAQ isoform of STING (Q86WV6 whole entry R71H/G230A/H232R/R293Q, canonical isoform): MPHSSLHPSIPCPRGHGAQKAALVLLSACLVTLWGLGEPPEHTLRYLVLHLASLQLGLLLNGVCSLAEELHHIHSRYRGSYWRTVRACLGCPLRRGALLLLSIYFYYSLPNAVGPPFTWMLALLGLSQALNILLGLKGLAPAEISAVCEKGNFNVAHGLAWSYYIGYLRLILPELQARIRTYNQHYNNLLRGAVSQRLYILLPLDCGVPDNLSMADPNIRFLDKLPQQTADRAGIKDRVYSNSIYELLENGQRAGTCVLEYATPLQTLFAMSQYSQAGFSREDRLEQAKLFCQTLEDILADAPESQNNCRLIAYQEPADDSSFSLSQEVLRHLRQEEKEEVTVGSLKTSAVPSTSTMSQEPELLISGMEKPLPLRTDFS
Procedure: (§2) THP-1 STING Lucia ISG cells (InvivoGen #thpl-isg) were cultured in RPMI-1640 containing 2 mM L-glutamine, 25 mM HEPES, 100 μg/mL Normocin (InvivoGen) and 10% heat-inactivated FBS. Cells were seeded at a density of 7×10^5 cells/mL, maintained at 37° C./5% CO2, and passaged every 3-4 days. Selection pressure was maintained by the addition of 100 μg/mL Zeocin every second passage.
(§3) Assay conditions: cells were harvested and resuspended at a concentration of 5×10^5 cells/mL in fresh growth media. Of this cell preparation 20 μL per well was dispensed into 384 well cell culture plates (Greiner, #781098X) and incubated at 37° C./5% CO2 for 2 hours.
(§4) Concentration Response Curves (commonly 11 doses) were prepared by 2.5 fold serial dilution starting from 10 mM compound stock solution in DMSO. Compound dilutions were transferred into the cell culture plates using a pintool (0.1 μL transfer), control wells were matched for DMSO. Positive control wells received ML RR-S2 CDA (Med Chem Express HY12885B) in 5 μL of media to a final concentration of 40 μM. All other wells received additional 5 μL of media only to equalize volume. The plates were incubated for 24 h at 37° C./5% CO2.
(§5) For the detection step, QUANTI-Luc (InvivoGen #rep-qlc1) was prepared according to manufacturer's instruction and 10 μL were added per well to the culture plates. Plates were shaken for ten seconds on an orbital shaker and left in the dark at room temperature for two minutes, before luminescence was read on a Perkin Elmer Envision plate reader.
(§6) Data analysis: Luminescence raw data was normalized % activity relative to the signal of the positive control wells and negative control wells which were not treated with compound. The following formula was used to calculate normalized % activity from raw signals: % activity=(sample−negative)/(positive−negative)
(§7) The THP-1 STING Lucia ISG cell EC50 provides an assessment of activity at the human HAQ isoform of STING. For assessing compound activity against the WT human STING isoform, an equivalent method was conducted where the cells used were THP-1-Dual KI-hSTING-R232 (InvivoGen #thpd-r232).

WT human STING isoform = WT human STING isoform (Homo sapiens (Human), UniProt Q86WV6, H232R); test: THP-1-Dual KI-hSTING-R232 reporter cell line assay; type: cell-based; details: 24 h incubation, luminescence, normalized to ML RR-S2 CDA 40 μM; read-out: EC50 THP-1 Dual KI-hSTING-R232 cells
Sequence of WT human STING isoform (Q86WV6 whole entry H232R, canonical isoform): as the sequence (Q86WV6 whole entry R71H/G230A/H232R/R293Q, canonical isoform) above, with H71R, A230G, Q293R counted along it
Procedure: as §2, §3, §4, §5, §6, §7

human STING (WT) [4] = molecular target: T2, human STING (WT); test: Surface Plasmon Resonance (SPR), STING (WT); details: read-out: SPR (WT) KD; biotinylated STING on streptavidin chip, 8° C.
human STING (HAQ) [5] = molecular target: T1, human STING (HAQ); test: Surface Plasmon Resonance (SPR), STING (HAQ); details: read-out: SPR (HAQ) KD; biotinylated STING on streptavidin chip, 8° C.
human STING (HAQ) [6] = molecular target: T1, human STING (HAQ); test: biochemical
human STING (WT) [7] = molecular target: T2, human STING (WT); test: biochemical

T1 sequence (Q86WV6 149-345 G230A/H232R/R293Q): as the sequence (Q86WV6 149-345 H232R) above, with G82A, R145Q counted along it

| SMILES | DSF huSTING (HAQ) ΔTm (human STING (HAQ) [1]) [°C] | DSF huSTING (WT) ΔTm (human STING (WT) [2]) [°C] | EC50 [3] [nM] | EC50 (WT human STING isoform) [nM] | Kd (human STING (WT) [4]) [nM] | Kd (human STING (HAQ) [5]) [nM] | ΔTm at 100 µM (human STING (HAQ) [1]) [°C] | ΔTm at 100 µM (human STING (WT) [2]) [°C] | Kd (human STING (HAQ) [6]) [nM] | Kd (human STING (WT) [7]) [nM] |
| --- | --- | --- | --- | --- | --- | --- | --- | --- | --- | --- |
| NC(=O)c1ccc2c(c1)nc(-c1c(C(=O)O)sc3cccc(Cl)c13)n2CCn1c(-c2c(C(=O)O)sc3cccc(Cl)c23)nc2cc(C(N)=O)ccc21 (single isomer, unassigned) [Example 1.1, 3,3′-(Ethane-1,2-diylbis(5-carbamoyl-1H-benzo[d]imidazole-1,2-diyl))bis(4-chlorobenzo[b]thiophene-2-carboxylic acid)] | 31.8 | 19.9 | 681 | 271 | 119 | 1.7 | – | – | – | – |
| NC(=O)c1ccc2c(c1)nc(-c1c(C(=O)O)sc3c(F)ccc(Br)c13)n2CCn1c(-c2c(C(=O)O)sc3c(F)ccc(Br)c23)nc2cc(C(N)=O)ccc21 (single isomer, unassigned) [Example 20.1, 3,3′-(Ethane-1,2-diylbis(5-carbamoyl-1H-benzo[d]imidazole-1,2-diyl))bis(4-bromo-7-fluorobenzo[b]thiophene-2-carboxylic acid)] | 31.76 | 22.71 | 1580 | 632 | 16 | 1.65 | – | – | – | – |
| COc1ccc(F)c2sc(C(=O)O)c(-c3nc4cc(C(N)=O)ccc4n3CCn3c(-c4c(C(=O)O)sc5c(F)ccc(OC)c45)nc4cc(C(N)=O)ccc43)c12 (single isomer, unassigned) [Example 13.1, 3,3′-(Ethane-1,2-diylbis(5-carbamoyl-1H-benzo[d]imidazole-1,2-diyl))bis(7-fluoro-4-methoxybenzo[b]thiophene-2-carboxylic acid)] | 31.23 | 18.17 | 8310 | 3750 | 300 | 4 | – | – | – | – |
| COc1cccc2sc(C(=O)O)c(-c3nc4cc(C(N)=O)ccc4n3CCn3c(-c4c(C(=O)O)sc5cccc(OC)c45)nc4cc(C(N)=O)ccc43)c12 (single isomer, unassigned) [Example 5.1, 3,3′-(Ethane-1,2-diylbis(5-carbamoyl-1H-benzo[d]imidazole-1,2-diyl))bis(4-methoxybenzo[b]thiophene-2-carboxylic acid)] | 23.59 | 6.4 | > 40000 | 13600 | 692 | 20.9 | – | – | – | – |
| NC(=O)c1ccc2c(c1)nc(-c1c(C(=O)O)sc3cccc(Cl)c13)n2CCCn1c(-c2c(C(=O)O)sc3cccc(Cl)c23)nc2cc(C(N)=O)ccc21 (single isomer, unassigned) [Example 4.1, 3,3′-(Propane-1,3-diylbis(5-carbamoyl-1H-benzo[d]imidazole-1,2-diyl))bis(4-chlorobenzo[b]thiophene-2-carboxylic acid)] | 2.85 | −0.82 | > 40000 | > 40000 | 500000 | 35100 | – | – | – | – |
| CCOC(=O)c1sc2cccc(Cl)c2c1-c1nc2cc(C(N)=O)ccc2n1CCn1c(-c2c(C(=O)OCC)sc3cccc(Cl)c23)nc2cc(C(N)=O)ccc21 [Example A1, Diethyl 3,3′-(ethane-1,2-diylbis(5-carbamoyl-1H-benzo[d]imidazole-1,2-diyl))bis(4-chlorobenzo[b]thiophene-2-carboxylate)] | – | – | 18400 | 12000 | 16000 | 14900 | 0.36 | 1.84 | – | – |
| NC(=O)c1ccc2c(c1)nc(-c1c(C(=O)O)sc3cccc(Br)c13)n2CCn1c(-c2c(C(=O)O)sc3cccc(Br)c23)nc2cc(C(N)=O)ccc21 (single isomer, unassigned) [Example 11.1, 3,3′-(Ethane-1,2-diylbis(5-carbamoyl-1H-benzo[d]imidazole-1,2-diyl))bis(4-bromobenzo[b]thiophene-2-carboxylic acid)] | 31.05 | 17.83 | 182 | 172 | 63 | 1.64 | – | – | – | – |
| NC(=O)c1ccc2c(c1)nc(-c1c(C(=O)O)sc3c(F)ccc(Cl)c13)n2CCn1c(-c2c(C(=O)O)sc3c(F)ccc(Cl)c23)nc2cc(C(N)=O)ccc21 (single isomer, unassigned) [Example 2.1, 3,3′-(Ethane-1,2-diylbis(5-carbamoyl-1H-benzo[d]imidazole-1,2-diyl))bis(4-chloro-7-fluorobenzo[b]thiophene-2-carboxylic acid)] | – | 21 | 1830 | 518 | 31 | 7.4 | 32 | – | – | – |
| COc1cccc2sc(C(=O)O)c(-c3nc4cc(C(N)=O)ccc4n3CCn3c(-c4c(C(=O)O)sc5cccc(OC)c45)nc4cc(C(N)=O)ccc43)c12 (single isomer, unassigned) [Example 5.2, 3,3′-(Ethane-1,2-diylbis(5-carbamoyl-1H-benzo[d]imidazole-1,2-diyl))bis(4-methoxybenzo[b]thiophene-2-carboxylic acid)] | – | 19.17 | 1660 | 489 | 122 | 1.4 | 30.9 | – | – | – |
| NC(=O)c1ccc2c(c1)nc(-c1c(C(=O)O)sc3cccc(Cl)c13)n2CCCn1c(-c2c(C(=O)O)sc3cccc(Cl)c23)nc2cc(C(N)=O)ccc21 (single isomer, unassigned) [Example 4.2, 3,3′-(Propane-1,3-diylbis(5-carbamoyl-1H-benzo[d]imidazole-1,2-diyl))bis(4-chlorobenzo[b]thiophene-2-carboxylic acid)] | – | −0.76 | > 40000 | 19000 | – | – | 4.56 | – | 16600 | 23000 |
| Cc1cccc2sc(C(=O)O)c(-c3nc4cc(C(N)=O)ccc4n3CCn3c(-c4c(C(=O)O)sc5cccc(C)c45)nc4cc(C(N)=O)ccc43)c12 (single isomer, unassigned) [Example 15.2, 3,3′-(Ethane-1,2-diylbis(5-carbamoyl-1H-benzo[d]imidazole-1,2-diyl))bis(4-methylbenzo[b]thiophene-2-carboxylic acid)] | 31.87 | 20.41 | 272 | 199 | 191 | 4.98 | – | – | – | – |
| COc1nccc2sc(C(=O)O)c(-c3nc4cc(C(N)=O)ccc4n3CCn3c(-c4c(C(=O)O)sc5ccnc(OC)c45)nc4cc(C(N)=O)ccc43)c12 [Example 7, 3,3′-(Ethane-1,2-diylbis(5-carbamoyl-1H-benzo[d]imidazole-1,2-diyl))bis(4-methoxythieno[3,2-c]pyridine-2-carboxylic acid)] | – | – | > 40000 | 7520 | 80000 | 28000 | 6.96 | 0.6 | – | – |
